Source: PMC7041944 (eLife, 2020)
Like-named read-outs stand apart in the source and are kept apart here.

Columns and labels:
KOR [1] = test: mGs probe recruitment to KOR (TIR-FM); assay type: cell-based, murine; conditions: DynA 1 nM - 10 μM; Venus-mGs, HEK293, TIR-FM
Experimental: Live cell image series measuring protein recruitment to the plasma membrane were performed at 37°C using a Nikon Ti-E microscope equipped for through-the-objective TIR-FM with a temperature-, humidity- and CO2-controlled chamber (Okolab), objective heater, perfect focus system, and an Andor DU897 EMCCD camera. Images were obtained with a 100 × 1.49 NA Apo TIRF objective (Nikon) with solid-state lasers of 488, 561 and 647 nm (Keysight Technologies). Before imaging, receptors at the cell surface were labelled with M1 monoclonal FLAG antibody (1:1,000) conjugated to Alexa647 dye for 10 min at 37°C. Cells were then washed and live imaged in HBS imaging solution (Hepes buffered saline (HBS) with 135 mM NaCl, 5 mM KCl, 0.4 mM MgCl2,1.8 mM CaCl2, 20 mM Hepes, 5 mM d-glucose adjusted to pH 7.4 and 300–315 mOsmol/l). Agonists or antagonists were either added by bath application at concentrations indicated in the figure legends or by media perfusion. For the latter, an insert was 3D-printed and placed inside the imaging dish where it left a dead volume of about 300 μL. […]
For probing protein recruitment to the plasma membrane, HEK293 cells co-expressing the cytosolic protein of interest (mGsi, Nb33, or GRK2) and MOR or KOR were imaged using TIR-FM. […] Protein intensity during time lapse series was measured using ImageJ. […]

KOR [2] = assay type: cell-based, murine
KOR [3] = assay type: cell-based, murine; remark: listed apart in the source
KOR [4] = assay type: cell-based, murine; remark: listed apart in the source
KOR [5] = assay type: cell-based, murine; remark: listed apart in the source
KOR [6] = assay type: cell-based, murine; remark: listed apart in the source
MOR [7] = assay type: cell-based, murine
MOR [8] = assay type: cell-based, murine; remark: listed apart in the source
[9] = target: signal sequence FLAG (ssf)-KOR, murine (kappa opioid receptor) (murine) (UniProt P33534); test: TIR-FM recruitment of a fluorescent cytosolic protein to the plasma membrane of living cells; HEK293 cells co-expressing the fluorescent cytosolic protein and the receptor; 37 C, HBS imaging solution pH 7.4; agonists added in rising concentrations (1 nM - 10 uM) by bath application or perfusion: DynA, U69, U50, etorphine for KOR; DAMGO, etorphine, morphine, PZM21, MP for MOR; reversed by the antagonists 5'GNTI or naloxone; also with Cmpd101 (30 uM)
UniProt P33534, sequence (P33534 whole entry, the tested form may be a part): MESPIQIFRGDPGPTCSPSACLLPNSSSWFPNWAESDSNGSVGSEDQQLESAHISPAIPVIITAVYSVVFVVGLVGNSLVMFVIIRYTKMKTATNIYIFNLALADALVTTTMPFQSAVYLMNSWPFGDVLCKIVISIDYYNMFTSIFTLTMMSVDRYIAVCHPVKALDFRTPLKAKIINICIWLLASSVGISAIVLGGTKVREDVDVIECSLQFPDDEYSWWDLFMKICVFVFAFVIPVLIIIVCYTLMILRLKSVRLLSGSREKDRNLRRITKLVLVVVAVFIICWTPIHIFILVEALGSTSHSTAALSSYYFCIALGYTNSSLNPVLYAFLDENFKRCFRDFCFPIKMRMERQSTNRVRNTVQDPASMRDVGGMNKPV

## Dynorphin A (1–17, DynA)
KOR [1]
  mGs recruitment in response to KOR activation: not detectably recruited
KOR [2]
  GRK2 accumulation at KOR-containing clusters (in words): specifically accumulated at the KOR-containing clusters
KOR [3]
  I.A.(Nb33), intrinsic activity (maximal response): 1.00
KOR [4]
  I.A.(mGsi), intrinsic activity (maximal response): 1.00
  mGsi/Nb33, ratio of intrinsic activities: 1
KOR [5]
  recruitment of isolated C-terminal PH domain from GRK2 (GRK2-C-tail): similarly strong recruitment
KOR [6]
  GRK2 recruitment in cells pre-exposed to pertussis toxin: significant recruitment response

## C[C@@H](Cc1ccsc1)NC(=O)NC[C@H](Cc1ccc(O)cc1)N(C)C [PZM21]
MOR [7]
  mGsi/Nb33, ratio of intrinsic activities: 2.60
MOR [7]; SEM
  I.A.(mGsi), intrinsic activity (maximal response): 0.70±0.02
MOR [8]; SEM
  I.A.(Nb33), intrinsic activity (maximal response): 0.27±0.05

## Cl.Cl.NC(N)=Nc1ccc2[nH]c3c(c2c1)C[C@@]1(O)[C@H]2Cc4ccc(O)c5c4[C@@]1(CCN2CC1CC1)[C@H]3O5 [5’GNTI, GNTI dihydrochloride]
KOR [4]
  reversal of DynA-induced mGsi recruitment by KOR antagonist: rapid redistribution of the biosensor back to the cytoplasm

## DAMGO, [D-Ala2, N-Me-Phe4, Gly5-ol]-Enkephalin acetate salt
MOR [7]
  I.A.(mGsi), intrinsic activity (maximal response): 1.00
  mGsi/Nb33, ratio of intrinsic activities: 1
MOR [8]
  I.A.(Nb33), intrinsic activity (maximal response): 1.00

## CC[C@@H]1CN2CC[C@]3(Nc4cccc(OC)c4C3=O)[C@@H]2C[C@@H]1/C(=C\OC)C(=O)OC [MP, mitragynine pseudoindoxyl]
MOR [7]
  mGsi/Nb33, ratio of intrinsic activities: 7.47
MOR [7]; SEM
  I.A.(mGsi), intrinsic activity (maximal response): 0.31±0.02
MOR [8]
  Nb33 recruitment by MOR (in words): without promoting detectable recruitment
MOR [8]; SEM
  I.A.(Nb33), intrinsic activity (maximal response): 0.04±0.05

## NES-Venus-mGsi (mini-G protein: Ras-like domain of Gs alpha with nine distal C-terminal residues from Gi alpha1) (designed binder)
[9]
  maximum recruitment with etorphine, percent of that with DynA: 67%
